15 compounds from US9751881B2, “Inhibitors of the renal outer medullary potassium channel” (Merck Sharp & Dohme Corp., priority 2013, dated 2017) can be followed below.

This assay has as its target hROMK (hKir1.1) (Homo sapiens (Human), UniProt P48048). As to the kind of experiment: Thallium Flux Assay (ROMK channel functional thallium flux, FLIPR-Tetra). The conditions noted are these: read-out: ROMK TI IC50. It is filed as cell-based. A digest of the protocol: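 HEK293 cells stably expressing hROMK, FluxOR dye-loaded 90 min, then compound 30 min at room temperature. Normalised to 3 μM reference ROMK inhibitor as % fluorescence change.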

[1] abbreviates: HEK293 cells stably expressing hROMK (hKir1.1), unit not given in Table 4 (IC50 potencies less than 1 μM).

Where two headings read alike, the source gives them in different places.

hROMK (hKir1.1), sequence (P48048 whole entry): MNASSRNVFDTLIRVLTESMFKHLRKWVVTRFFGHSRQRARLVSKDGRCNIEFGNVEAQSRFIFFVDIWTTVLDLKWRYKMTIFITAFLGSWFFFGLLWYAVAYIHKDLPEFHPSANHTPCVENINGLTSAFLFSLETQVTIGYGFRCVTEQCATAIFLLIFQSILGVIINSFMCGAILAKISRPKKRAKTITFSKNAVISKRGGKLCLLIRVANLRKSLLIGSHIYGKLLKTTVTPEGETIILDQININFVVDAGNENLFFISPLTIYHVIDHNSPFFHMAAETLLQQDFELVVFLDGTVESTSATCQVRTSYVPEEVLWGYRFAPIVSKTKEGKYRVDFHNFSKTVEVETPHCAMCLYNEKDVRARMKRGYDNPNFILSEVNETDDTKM

For orientation: IC50 means the concentration needed to halve the response being measured. For `Cc1c([C@@H](O)CN2CCC3(CC2)CN(c2ccc(C#N)cn2)CCO3)ccc2c1COC2=O` [Example 101, (R)-6-(9-(2-Hydroxy-2-(4-methyl-1-oxo-1,3-dihydroisobenzofuran-5-yl)ethyl)-1-oxa-4,9-diazaspiro[5.5]undecan-4-yl)nicotinonitrile], the IC50 under setting [1] turned out to be 39.6 nM. Consider `COc1cc(N2CC3(CCN(C[C@H](O)c4ccc5c(c4C)COC5=O)CC3)OCC2=O)ncc1C#N` [Example 102, (R)-6-(9-(2-Hydroxy-2-(4-methyl-1-oxo-1,3-dihydroisobenzofuran-5-yl)ethyl)-3-oxo-1-oxa-4,9-diazaspiro[5.5]undecan-4-yl)-4-methoxynicotinonitrile], for which the IC50 under setting [1] turned out to be 16.7 nM.

On to `Cc1c([C@@H](O)CN2CCC3(CC2)CCN(c2ccc(S(C)(=O)=O)nc2)CC3)ccc2c1COC2=O` [Example 103, (R)-5-(1-hydroxy-2-(9-(6-(methylsulfonyl)148yridine-3-yl)-3,9-diazaspiro[5.5]undecan-3-yl)ethyl)-4-methylisobenzofuran-1(3H)-one], for which, under setting [1], the IC50 was 563 nM. In the case of `Cc1c([C@@H](O)CN2CCC3(CC2)CCN(c2ccc(C#N)cn2)CC3)ccc2c1COC2=O` [Example 104], the IC50 amounted to 26 nM. For the compound `Cc1c([C@@H](O)CN2CCC3(CC2)CCN(c2ccc(C#N)nn2)CC3)ccc2c1COC2=O` [Example 105, (R)-6-(9-(2-hydroxy-2-(4-methyl-1-oxo-1,3-dihydroisobenzofuran-5-yl)ethyl)-3,9-diazaspiro[5.5]undecan-3-yl)pyridazine-3-carbonitrile], the IC50 under setting [1] came to 13.5 nM. On to `Cc1c(C(O)CN2CCC3(CC2)CCN(c2cc(C#N)ncn2)CC3)ccc2c1COC2=O` (stereo not drawn) [Example 106], for which, under setting [1], the IC50 came out at 26.3 nM.

Turning to `Cc1c(C(O)CN2CCC3(CC2)CCN(c2ncccc2C#N)CC3)ccc2c1COC2=O` (stereo not drawn) [Example 107], the IC50 under setting [1] stood at 180 nM. With `Cc1cc(C#N)cnc1N1CCC2(CCN(CC(O)c3ccc4c(c3C)COC4=O)CC2)CC1` (stereo not drawn) [Example 108], the IC50 under setting [1] worked out at 255 nM. As for `Cc1c(C(O)CN2CCC3(CC2)CCN(c2ncc(C#N)cn2)CC3)ccc2c1COC2=O` (stereo not drawn) [Example 109], the IC50 under setting [1] came out at 14.5 nM. Regarding `Cc1c(C(O)CN2CCC3(CC2)CCN(c2nccnc2C#N)CC3)ccc2c1COC2=O` (stereo not drawn) [Example 110], the IC50 under setting [1] amounted to 135 nM. The same measure, in the same setting: the figure for `Cc1c(C(O)CN2CCC3(CC2)CCN(c2cnc(C#N)cn2)CC3)ccc2c1COC2=O` (stereo not drawn) [Example 111] is 9.62 nM. Still for that read-out and setting: in the case of `Cc1cc(C#N)c(N2CCC3(CCN(CC(O)c4ccc5c(c4C)COC5=O)CC3)CC2)nn1` (stereo not drawn) [Example 112] it was 161 nM; in that of `Cc1c(C(O)CN2CCC3(CC2)CCN(c2ncc(C#N)cc2F)CC3)ccc2c1COC2=O` (stereo not drawn) [Example 113], 473 nM; in that of `Cc1nc(N2CCC3(CCN(CC(O)c4ccc5c(c4C)COC5=O)CC3)CC2)ccc1C#N` (stereo not drawn) [Example 114], 136 nM. `Cc1c([C@@H](O)CN2CCC3(CC2)CCN(c2ccnc(-c4ccoc4)n2)C3=O)ccc2c1COC2=O` [Example 115, (R)-2-(2-(furan-3-yl)pyrimidin-4-yl)-8-(2-hydroxy-2-(4-methyl-1-oxo-1,3-dihydroisobenzofuran-5-yl)ethyl)-2,8-diazaspiro[4.5]decan-1-one]: the IC50 under setting [1] turned out to be 286 nM.
